Experiment [1] deals with rat PMNs. Put plainly: Inhibition of priming of rat PMN (PMA + rrIFN-γ or rHuIL-1), Superoxide Anion (O2-) assay. The experiment is classed as cell-based. The settings on record: PMA 200 ηg/mL, compound 0 to 1000 µM, superoxide anion readout. The method, then:
The rat air pouch model of inflammation was used to obtain rat PMNs using 25ηg/pouch of recombinant human interleukin-1 (rHuIL-1) to elicit the cells essentially according to the method of Esser et al. [Internat. J. Tissue Reactions XI, 291 (1989)]. PMNs were incubated along with phorbol myristate acetate (PMA)(200ηg/mL), which acts as a soluble stimulus, and rrIFN-γ (1000 Units/mL), which acts as a stimulatory lymphokine, or rHuIL-1 (500 Units/mL), which acts as a stimulatory cytokine, in the presence of various concentrations of (1S,3R)-Cis-1(9-adenyl)-3-hydroxycyclopentane (0 to 1000 µM). The degree of macrophage priming was measured using the Superoxide Anion (O2-) assay as described by Edwards et al. [Science 239, 769 (1988)].

Experiment [2] relates to Rat peritoneal macrophages. Put plainly: Inhibition of priming of rat peritoneal macrophages (opsonized zymosan + rrIFN-γ), Superoxide Anion (O2-) assay. The experiment is classed as cell-based. The settings on record: opsonized zymosan 3 mg/mL, rrIFN-γ 1000 Units/mL; compound 0 to 1000 µM; superoxide anion readout; read-out: IC50 (inhibits the priming of rat macrophages in vitro). The method, then:
Rat peritoneal macrophages were isolated and grown in cell culture essentially as described by Edwards et al. [Science 239, 769 (1988)]. Macrophages were incubated along with opsonized zymosan (3 mg/mL), which acts as a particulate stimulus, and recombinant rat γ-interferon (rrIFN-y)(1000Units/mL), which acts as an activating lymphokine, in the presence of various concentrations of (1S,3R)-Cis-l(9-adenyl)-3-hydroxycyclopentane (0 to 1000µM). The degree of macrophage priming was measured using the Superoxide Anion (O2-) assay as described by Edwards et al. [Science 239, 769 (1988)].

Where a name gives a salt, the structure may show the parent alone. Read-outs that look alike come from different tables or passages of the source.

The IC50 is the point on the concentration scale where inhibition reaches its midpoint. `Nc1ncnc2c1ncn2[C@H]1CC[C@@H](O)C1` [(1S,3R)-Cis-1-(9-adenyl)-3-hydroxycyclopentane hydrochloride]: the 50% inhibitory concentration (IC50) in experiment [1] (rHuIL-1 500 Units/mL, read-out: IC50 (inhibits the rHuIL-1 priming of rat PMN in vitro)) is 1 nM; in experiment [1] (rrIFN-γ 1000 Units/mL, read-out: IC50 (inhibits the rrIFN-γ priming of rat PMN in vitro)), 1 nM.

“(1S,3R)-Cis-l(9-adenyl)-3-hydroxy-4-cyclopentene”: the IC50 in experiment [2] came out at 2500 nM.

For the origin of these results see patent publication EP0475411B1, “Novel carbocyclic adenosine analogs useful as immunosuppressants” (Aventis Pharmaceuticals Inc., priority 1990, dated 1992).
